Experimental data from patent US6645715B1, “Artificial cornea” (University of Ottawa, priority 1998, dated 2003).

How the values were obtained:
human eye bank corneas = test: RT-PCR of gene expression in human eye bank corneas after SDS exposure; assay type: cell-based; conditions: 5% SDS in M199
Protocol: (§1) Reverse transcription-polymerase chain reaction (RT-PCR) was used to examine changes in expression of the above genes in corneal epithelial cell lines compared to primary cells, and in artificial corneas compared to human corneas from the eye bank after exposure to a detergent SDS. The cells were exposed to 0.02% SDS in M199 for 2 minutes. Corneas were treated with 5% SDS in M199. Controls were dosed with M199 only. RT-PCR was performed on RNA from cells and corneas obtained at different time points after injury. Semi-quantitative analyses were conducted by introducing the housekeeping gene, glyceraldehyde-3-phosphate dehydrogenase (GAPDH) as an internal control and by Southern analysis. PCR products were sequenced to confirm their identity.

reconstructed corneas [1] = test: Live-dead staining of reconstructed corneas after chemical exposure; assay type: cell-based, human; conditions: SDS; 0.01% benzalkonium chloride solution
Source text: Live cells are green, while dying or dead cells are orange-red. […] C.

reconstructed corneas [2] = test: RT-PCR of gene expression in SDS-treated reconstructed corneas; assay type: cell-based, human; conditions: 5% SDS in M199; reconstructed whole corneas
Protocol: as §1, with “Band intensities for the indicated genes were quantitated by a phosphoimager and were divided by the intensity of the corresponding GAPDH band. Corneas were treated with 5% SDS in medium for 1 or 3 minutes, then washed twice with medium. Total RNA was extracted at 1 hour after the SDS treatment, and RT-PCR was carried out for specific primers for various genes. Reverse” for “Reverse”, “identity. […] However, these changes were more marked in the reconstructed whole corneas than in the epithelial monolayers.” for “identity.”

reconstructed corneas [3] = test: Responses of reconstructed corneas to aqueous test chemicals (wound, corneal transparency); assay type: cell-based, human; conditions: 10% SDS, 0.01% benzalkonium chloride solution
Protocol: Each cornea was exposed centrally to 100 μl of the test chemical for 10 min, after which the chemical was washed off with saline and the corneas were re-cultured for a further 3 days. The saline-treated cornea served as the control.

[4] = tested on: corneal epithelial cell lines and primary epithelial cells; test: RT-PCR of mRNA expression in corneal epithelial cells after SDS exposure; assay type: cell-based, human
Source text: Corneal epithelial cell lines were exposed to sodium dodecyl sulfate (SDS) to characterise the changes in mRNA expression of early response genes such as c-fos and c-jun, cytokines probably involved with corneal wound healing such as interleukins (IL-1a and IL-6), basic fibroblast growth factor (bFGF), vascular endothelial growth factor (VEGF) and epidermal growth factor (EGF), and matrix molecules that are elaborated during healing such as collagens types I, III and V. Reverse transcription-polymerase chain reaction (RT-PCR) was used to examine changes in expression of the above genes in corneal epithelial cell lines compared to primary cells, and in artificial corneas compared to human corneas from the eye bank after exposure to a detergent SDS. The cells were exposed to 0.02% SDS in M199 for 2 minutes. Corneas were treated with 5% SDS in M199. Controls were dosed with M199 only. RT-PCR was performed on RNA from cells and corneas obtained at different time points after injury. Semi-quantitative analyses were conducted by introducing the housekeeping gene, glyceraldehyde-3-phosphate dehydrogenase (GAPDH) as an internal control and by Southern analysis. PCR products were sequenced to confirm their identity. Baseline levels of the 10 mRNAs examined were established in control epithelial cells and corneas (n> or =6 for each time point). […] However, changes in MRNA expression for bFGF, VEGF, EGF and collagen III were non-significant.

[5] = 0.02% SDS in M199 for 2 minutes, within 1 hour of injury, primary epithelial cells and cell lines

## CCCCCCCCCCCCOS(=O)(=O)[O-].[Na+] [SDS, sodium dodecyl sulfate]
Human eye bank corneas
  changes in gene expression: responded to SDS exposure with changes in gene expression
Reconstructed corneas [1]
  live-dead staining, epithelial cells: mostly dead and dying cells
  live-dead staining, stromal cells: orange-red dead or dying cells
  penetration into the stromal compartment: penetration of the detergent into the stroma
Reconstructed corneas [2]
  extent of changes in gene expression versus epithelial monolayers: more marked
Reconstructed corneas [3]; 100 μl centrally for 10 min, washed off with saline, re-cultured 3 days
  wound / change of corneal transparency: caused wounds to the centre of the cornea
Reconstructed corneas [3]; 100 μl for 10 min, re-cultured a further 3 days
  healing of the wound: still unhealed
[4]; 0.02% SDS for 2 minutes
  IL-1a mRNA expression: increased expression
  IL-6 mRNA expression: increased expression
  changes in mRNA expression for EGF: non-significant
  changes in mRNA expression for VEGF: non-significant
  changes in mRNA expression for bFGF: non-significant
  changes in mRNA expression for collagen III: non-significant
  collagen I mRNA expression: increased expression
  collagen V mRNA expression: increased expression
[4]; 0.02% SDS for 2 minutes, 24 hours
  expression of c-fos, time course: returned to baseline levels by the end of 24 hours
[4]; 0.02% SDS for 2 minutes, until day 6
  expression of c-jun, time course: remained high until day 6 after injury
[4]; [5]
  expression of c-fos: significantly increased
  expression of c-jun: significantly increased
